# Non-standard residues stand in square brackets, D forms with d. Residues, ends and D or L forms follow the SMILES beside them. Nspe = C[C@H](NCC(=O)O)c1ccccc1; Nphe = O=C(O)CNCc1ccccc1; Nlys = NCCCCNCC(=O)O
# Assays:
# [1] = test system: red blood cells; assay: Hemolytic activity on red blood cells; format: cell-based, mouse
# Description: In order to identify, through red blood cell hemolytic activity in mice, whether the peptoids synthesized in Preparation Example 1 are cytotoxic, red blood cells isolated from 10 mL of mouse blood were washed three times with phosphate-buffered saline (PBS, mixed solution of 35 mM phosphate buffer/150 mM NaCl, pH 7.4), and then centrifuged at a centrifugal force of 1,000 ×g for 10 minutes. A 10% (v/v) red blood cell solution diluted with PBS was dispensed into a 96-well microtiter plate at 150 μL each, and then a peptide solution was added at 50 μL each. Thereafter, the 96-well microtiter plate was incubated at a temperature of 37° C. for 1 hour.
# The incubated 96-well microtiter plate was centrifuged at a centrifugal force of 1,000×g for 5 minutes. Thereafter, supernatant was taken at 100 μL each and transferred to a new 96-well microtiter plate. Then, absorbance at a wavelength of 540 nm was measured (Table 6).
# In this case, a value obtained in a case of being treated with 0.1% (v/v) Triton X-100 was set as 100% hemolysis, and hemolytic activity (degree of cell destruction) of the peptoids was calculated using the following Equation 1. In the Equation 1, A is absorbance of the peptoid solution at a wavelength of 540 nm, B is absorbance of 0.1% Triton X-100 at a wavelength of 540 nm, and C is absorbance of the PBS solution at a wavelength of 540 nm. In this case, Peptoid NO. […] Degree of cell destruction (% hemolysis)=(A−C)/(B−C)[…] [Equation 1]
# In Table 6, HD10 means a peptoid concentration which causes 10% hemolysis of red blood cells, and HD50 means a peptoid concentration which causes 50% hemolysis of red blood cells. In addition, Hmax is a hemolysis rate (%) at 200 μM which is the highest peptoid concentration used in the experiment.
# Hemolytic activity of Peptoid NOS. 1, 18 to 23, and the peptide Pexiganan was measured in the same manner as in Experimental Example 2.
# [2] = test system: S. aureus strain KCTC1621; format: cell-based; conditions: for MBC S. aureus: KCTC1621; for MIC S. aureus: KCTC1621, 18 h
# Description: (§1) In order to measure antimicrobial activity of the peptoids, Gram-positive S. aureus strain KCTC1621, or Gram-negative E. coli strain ATCC25922 was treated with the peptoids prepared in Preparation Example 1, and minimum inhibitory concentrations were measured. Peptoid NOS. 1 and 2 are already known peptoids and were used for the purpose of making a comparison with novel peptoids in terms of antimicrobial activity.
# (§2) Specifically, S. aureus strain KCTC1621 or E. coli strain ATCC25922 was inoculated into Mueller Hinton Broth (MHB2) liquid medium on which cations were adjusted, cultured at a temperature of 37° C. for 18 hours, and then subcultured for 4 hours. Thereafter, the strains were diluted with MHB2 liquid medium containing 0.2% bovine serum albumin and 0.01% acetic acid so that each bacterial number was 2×10^5 colony-forming units (CFU) per 1 mL, and dispensed into 96-well microtiter plates at 100 μL each. A peptoid stock which is 40-fold more concentrated than a concentration to be tested was added to each well at 2.5 μL or lower so that the peptoid stock was 2-fold serially diluted using sterile water. Thereafter, the plates were incubated at a temperature of 37° C. for 18 hours.
# (§3) Thereafter, absorbance was measured at a wavelength of 600 nm using a microplate reader (Bio-Rad). The lowest peptoid concentration that completely suppresses growth of microorganisms was measured by a minimum inhibitory concentration (MIC) and a minimum bactericidal concentration (MBC), and the measurement results are shown in Table 5 below. Each of the MIC values was calculated as an average value of numerical values obtained through three independent experiments.
# [3] = test system: E. coli strain ATCC25922; format: cell-based; conditions: for MBC E. coli: ATCC25922; for MIC E. coli: ATCC25922, 18 h
# Description: as §1, §2, §3
# [4] = test system: E. coli; assay: Selectivity analysis, HD10 divided by MIC for E. coli; conditions: HD10 of Table 6 divided by MIC for E. coli ATCC25922
# Description: In order to identify changes in selectivity depending on alteration of degree of folding in helical structure of peptoids, selectivity of each peptoid was calculated using the resultant values measured in the Experimental Examples 1 and 2. The selectivity was obtained by dividing the HD10 value by the minimum inhibitory concentration for E. coli (Table 8).
MIC S. aureus [2],MIC E. coli [3],Selectivity [HD10/MIC (E. coli)] [4],SMILES,HD10 [1],HD50 [1],MBC S. aureus [2],MBC E. coli [3]
3.1 µM,12.5 µM,,C[C@@H](c1ccccc1)N(CC(=O)N(CC(=O)N(CCCCN)CC(=O)N(CC(=O)N(CC(=O)N(CCCCN)CC(=O)N(CC(=O)N(CC(N)=O)Cc1ccccc1)Cc1ccccc1)Cc1ccccc1)Cc1ccccc1)Cc1ccccc1)C(=O)CN(CCCCN)C(=O)CN(Cc1ccccc1)C(=O)CN(Cc1ccccc1)C(=O)CNCCCCN [compound 5] (H-[Nlys][Nphe][Nphe][Nlys][Nspe][Nphe][Nlys][Nphe][Nphe][Nlys][Nphe][Nphe]-NH2),,195.0,3.1 µM,12.5 µM
3.1 µM,12.5 µM,,C[C@@H](c1ccccc1)N(CC(=O)N(CCCCN)CC(=O)N(CC(=O)N(CC(=O)N(CCCCN)CC(=O)N(CC(=O)N(CC(N)=O)Cc1ccccc1)Cc1ccccc1)Cc1ccccc1)Cc1ccccc1)C(=O)CN(Cc1ccccc1)C(=O)CN(CCCCN)C(=O)CN(Cc1ccccc1)C(=O)CN(Cc1ccccc1)C(=O)CNCCCCN [compound 6] (H-[Nlys][Nphe][Nphe][Nlys][Nphe][Nspe][Nlys][Nphe][Nphe][Nlys][Nphe][Nphe]-NH2),101.4,185.4,3.1 µM,25 µM
3.1 µM,12.5 µM,,C[C@@H](c1ccccc1)N(CC(=O)N(CC(=O)N(CCCCN)CC(=O)N(CC(=O)N(CC(N)=O)Cc1ccccc1)Cc1ccccc1)Cc1ccccc1)C(=O)CN(CCCCN)C(=O)CN(Cc1ccccc1)C(=O)CN(Cc1ccccc1)C(=O)CN(CCCCN)C(=O)CN(Cc1ccccc1)C(=O)CN(Cc1ccccc1)C(=O)CNCCCCN [compound 7] (H-[Nlys][Nphe][Nphe][Nlys][Nphe][Nphe][Nlys][Nspe][Nphe][Nlys][Nphe][Nphe]-NH2),,> 200,3.1 µM,25 µM
3.1 µM,12.5 µM,7.1,C[C@@H](c1ccccc1)N(CC(=O)N(CCCCN)CC(=O)N(CC(=O)N(CC(N)=O)Cc1ccccc1)Cc1ccccc1)C(=O)CN(Cc1ccccc1)C(=O)CN(CCCCN)C(=O)CN(Cc1ccccc1)C(=O)CN(Cc1ccccc1)C(=O)CN(CCCCN)C(=O)CN(Cc1ccccc1)C(=O)CN(Cc1ccccc1)C(=O)CNCCCCN [compound 8] (H-[Nlys][Nphe][Nphe][Nlys][Nphe][Nphe][Nlys][Nphe][Nspe][Nlys][Nphe][Nphe]-NH2),88.5,> 200,3.1 µM,25 µM
3.1 µM,12.5 µM,4.3,C[C@@H](c1ccccc1)N(CC(=O)N(CC(N)=O)Cc1ccccc1)C(=O)CN(CCCCN)C(=O)CN(Cc1ccccc1)C(=O)CN(Cc1ccccc1)C(=O)CN(CCCCN)C(=O)CN(Cc1ccccc1)C(=O)CN(Cc1ccccc1)C(=O)CN(CCCCN)C(=O)CN(Cc1ccccc1)C(=O)CN(Cc1ccccc1)C(=O)CNCCCCN [compound 9] (H-[Nlys][Nphe][Nphe][Nlys][Nphe][Nphe][Nlys][Nphe][Nphe][Nlys][Nspe][Nphe]-NH2),54.4,> 200,3.1 µM,25 µM

# Second part, the compound before the results:
SMILES,MIC S. aureus [2],MIC E. coli [3],Selectivity [HD10/MIC (E. coli)] [4],HD10 [1],HD50 [1],MBC S. aureus [2],MBC E. coli [3]
C[C@@H](c1ccccc1)N(CC(=O)N(CC(=O)N(CCCCN)CC(=O)N(CC(=O)N(CC(=O)N(CCCCN)CC(=O)N(CC(=O)N(CC(=O)N(CCCCN)CC(=O)N(CC(=O)N(CC(N)=O)Cc1ccccc1)Cc1ccccc1)Cc1ccccc1)Cc1ccccc1)Cc1ccccc1)Cc1ccccc1)Cc1ccccc1)C(=O)CNCCCCN [compound 3] (H-[Nlys][Nspe][Nphe][Nlys][Nphe][Nphe][Nlys][Nphe][Nphe][Nlys][Nphe][Nphe]-NH2),3.1 µM,25 µM,4.5,112.7,> 200,3.1 µM,25 µM
C[C@@H](c1ccccc1)N(CC(N)=O)C(=O)CN(Cc1ccccc1)C(=O)CN(CCCCN)C(=O)CN(Cc1ccccc1)C(=O)CN(Cc1ccccc1)C(=O)CN(CCCCN)C(=O)CN(Cc1ccccc1)C(=O)CN(Cc1ccccc1)C(=O)CN(CCCCN)C(=O)CN(Cc1ccccc1)C(=O)CN(Cc1ccccc1)C(=O)CNCCCCN [compound 10],3.1 µM,12.5 µM,,103.3,> 200,3.1 µM,25 µM
C[C@@H](c1ccccc1)N(CC(N)=O)C(=O)CN(Cc1ccccc1)C(=O)CN(CCCCN)C(=O)CN(Cc1ccccc1)C(=O)CN(Cc1ccccc1)C(=O)CN(CCCCN)C(=O)CN(Cc1ccccc1)C(=O)CN(Cc1ccccc1)C(=O)CN(CCCCN)C(=O)CN(Cc1ccccc1)C(=O)CN(C(=O)CNCCCCN)[C@@H](C)c1ccccc1 [compound 12],3.1 µM,12.5 µM,6.4,79.7,> 200,3.1 µM,25 µM
C[C@@H](c1ccccc1)N(CC(N)=O)C(=O)CN(C(=O)CN(CCCCN)C(=O)CN(Cc1ccccc1)C(=O)CN(Cc1ccccc1)C(=O)CN(CCCCN)C(=O)CN(Cc1ccccc1)C(=O)CN(Cc1ccccc1)C(=O)CN(CCCCN)C(=O)CN(Cc1ccccc1)C(=O)CN(C(=O)CNCCCCN)[C@@H](C)c1ccccc1)[C@@H](C)c1ccccc1 [compound 14],1.6 µM,12.5 µM,4.3,53.9,199.6,1.6 µM,12.5 µM
C[C@@H](c1ccccc1)N(CC(=O)N(CCCCN)CC(=O)N(CC(=O)N(CC(=O)N(CCCCN)CC(=O)N(CC(=O)N(CC(N)=O)Cc1ccccc1)Cc1ccccc1)[C@@H](C)c1ccccc1)[C@@H](C)c1ccccc1)C(=O)CN(C(=O)CN(CCCCN)C(=O)CN(Cc1ccccc1)C(=O)CN(Cc1ccccc1)C(=O)CNCCCCN)[C@@H](C)c1ccccc1 [compound 16] (H-[Nlys][Nphe][Nphe][Nlys][Nspe][Nspe][Nlys][Nspe][Nspe][Nlys][Nphe][Nphe]-NH2),1.6 µM,,,53.0,> 200,3.1 µM,6.3 µM

# Reference: US10815275B2, “Antimicrobial peptoids with improved selectivity and use thereof” (priority 2018, dated 2020)
